# Measured values from patent US6916843B1, “Anti-inflammatory actions of cytochrome P450 expoxygenase-derived eicosanoids” (The United States of America as represented by the …, priority 1999, dated 2005).
# Tests used:
# [1] = tested on: VCAM-1 expression; experiment: Cell-surface enzyme immunoassay of cytokine-induced VCAM-1 expression in endothelial cells; assay type: cell-based, human; details: human endothelial cells, 1-100 nM
# Experimental: (§1) FIG. 2 is a set of bar graphs of cell-surface enzyme immunoassays. […] The difference between treatment with TNF-α alone and in the presence of [11,12]-EET were statistically significant (*p<0.05, **p<0.01), OD, optical density. […] After stimulation with TNF-α (10 ng/ml) in the presence or absence of EET, promoter activity was determined relative to basal activity. *p<0.01 vs. TNF-α alone.
# (§2) To determine the biological effects of EETs, we treated tumor necrosis factor alpha (TNF-α)-stimulated human endothelial cells with physiological relevant concentrations (1-100 nM) of [5,6]-EET, [8,9]-EET, [11,12]-EET, [14,15]-EET, [11,12]-DHET.
# [2] = tested on: ICAM-1 expression; experiment: Cell-surface enzyme immunoassay of TNF-α-induced ICAM-1 expression in endothelial cells; assay type: cell-based, human; details: 100 nM, TNF-α 10 ng/ml
# Experimental: as §1, §2
# [3] = tested on: VCAM-1; experiment: VCAM-1 expression in the murine carotid artery after TNF-α; assay type: in vivo; details: mouse, intra-arterial infusion 100 ng/kg/min, TNF-α 10 μg/kg i.p., 5 hours
# Experimental: (§3) FIG. 3A is a graph showing the expression of VCAM-1 in the murine carotid artery at 5 hours after treatment with intraperitaneal injection of TNF-α (10 μg/kg) alone or in combination with continuous intra-arterial infusion of [11,12]-EET (100 ng/kg/min). FIG. 3B is a bar graph showing the effect of [11,12]-EET on TNF-α induced mononuclear cell adhesion in the murine carotid artery. The mononuclear cells (U937) were perfused through the carotid artery at a wall shear stress of 3 dyn/cm^2. Intra-arterial infusion of vehicle (saline) or [14,15]-EET (100 ng/kg/min) had no effect. […] All experiments except the [14,15]-EET infusion were performed in duplicate.
# (§4) To determine the functional relevance of EETs in vascular inflammation, we tested [11,12]-EET and its regioisomer [14,15]-EET in a recently developed in vivo model of TNF-α-induced VCAM-1 -mediated mononuclear cell adhesion in the murine carotid artery. […]
# (§5) Cell rolling and adhesion were recorded on videotape using stroboscopic epifluoresence illumination with an introvital microscope (objective Zeiss 20×, 0.5 numerical aperture). […] In separate experiments, VCAM-1 expression was measured in paraffin-sections (5 μm thick) of carotid arteries harvested from mice treated in the same way. […]
# [4] = tested on: mononuclear cell adhesion to carotid artery; experiment: TNF-α-induced mononuclear cell (U937) adhesion in the murine carotid artery; assay type: in vivo; details: mouse, intra-arterial infusion 100 ng/kg/min, TNF-α 10 μg/kg i.p., 5 hours
# Experimental: as §3, §4, §5
# [5] = tested on: F2-isoprostanes; experiment: Cellular F2-isoprostanes in BAECs exposed to hypoxia-reoxygenation (GC/MS); assay type: cell-based, bovine; details: CYP2J2-transfected vs GFP-transfected BAECs
# Experimental: F2-Isoprostane levels in BAECs were measured using a modification of the procedure described by Morrow & Roberts, 300 Methods Enzymol. 3-12 (1999). Briefly, cells were collected by treatment with trypsin and stored at −80° C. until analyzed. BHT was added to the freshly-thawed samples to inhibit oxidation during sample processing. The samples (4×10^7 cells) were incubated with KOH for 30 minutes at 40° C. The samples were then acidified to pH 3.0, 3 ng of a d4 8-iso-PGF2α internal standard was added, and the precipitated protein was removed by centrifugation at 375×g. The F2-isoprostanes in the supernatant were concentrated by passage over C18 Sep-pak (Millipore, Marlborough, Mass.), followed by Silica Sep-pak (Millipore) columns. The eluant, containing a mixture of the d4 internal standard and endogenous cellular F2-isoprostanes, was dried under nitrogen and derivatized to the pentaflorobenzyl (PFB) ester using […] according to the protocol of Schweer et al., 32 J. Mass Spectrom. 1362-1370 (1997). The PFB-derivatized isoprostanes were purified by TLC, and the bands were collected based on comparison of their Rf values to those of authentic standards. […] Quantitation was done by GC/NCI/MS on a 25m Supelco DB 5 column (Supelco, Bellefonte, Pa.). […]
# [6] = tested on: endogenous EET levels; experiment: Endogenous EET levels in BAECs (gas chromatography/mass spectrometry); assay type: cell-based, bovine; details: CYP2J2 transfection vs control BAECs
# Text: In addition to the cyclooxygenase and lipoxygenase pathways, the P450 monooxygenase pathway is an important member of the cardiac arachidonic acid metabolic cascade (Wu et al., 272 J. Biol. Chem 12551 (1997)).
Compound,inhibition of TNF-α-induced VCAM-1 expression (rank/words) ([1]; TNF-α),maximal inhibition of TNF-α-induced VCAM-1 expression ([1]; TNF-α 10 ng/ml) [%],inhibition of ICAM-1 expression [2],VCAM-1 expression in carotid artery [3],mononuclear cell adhesion to the vessel wall [4],hypoxia-reoxygenation-induced increase in cellular F2-isoprostanes [5],increase of endogenous EET levels [6]
"CCCCC/C=C\C[C@H]1O[C@H]1C/C=C\C/C=C\CCCC(=O)O [[11,12]-EET]",most effective,75,inhibited,decreased,inhibited,,
"CYP2J2: CYP2J2 cDNA (1.9 kb) subcloned into plasmid pcDNA3.1, transfected into endothelial cells",,,,,,significantly attenuated,approximately 30%
